32 molecules from patent US11040981B2, “Pyrrolotriazine compounds and methods of inhibiting TAM kinases” (Syros Pharmaceuticals, Inc., priority 2017, dated 2021) can be followed below.

Structures are written as SMILES. pIC50: −log10 of the molar value. Where only a bound is given, the exact number is not on record here.

What is called pIC50 is −log10 of the IC50, conventionally taken in molar units.

Experiment [1] concerns the target T1, AXL (Homo sapiens, UniProt P30530).
T1 sequence (P30530 26-894): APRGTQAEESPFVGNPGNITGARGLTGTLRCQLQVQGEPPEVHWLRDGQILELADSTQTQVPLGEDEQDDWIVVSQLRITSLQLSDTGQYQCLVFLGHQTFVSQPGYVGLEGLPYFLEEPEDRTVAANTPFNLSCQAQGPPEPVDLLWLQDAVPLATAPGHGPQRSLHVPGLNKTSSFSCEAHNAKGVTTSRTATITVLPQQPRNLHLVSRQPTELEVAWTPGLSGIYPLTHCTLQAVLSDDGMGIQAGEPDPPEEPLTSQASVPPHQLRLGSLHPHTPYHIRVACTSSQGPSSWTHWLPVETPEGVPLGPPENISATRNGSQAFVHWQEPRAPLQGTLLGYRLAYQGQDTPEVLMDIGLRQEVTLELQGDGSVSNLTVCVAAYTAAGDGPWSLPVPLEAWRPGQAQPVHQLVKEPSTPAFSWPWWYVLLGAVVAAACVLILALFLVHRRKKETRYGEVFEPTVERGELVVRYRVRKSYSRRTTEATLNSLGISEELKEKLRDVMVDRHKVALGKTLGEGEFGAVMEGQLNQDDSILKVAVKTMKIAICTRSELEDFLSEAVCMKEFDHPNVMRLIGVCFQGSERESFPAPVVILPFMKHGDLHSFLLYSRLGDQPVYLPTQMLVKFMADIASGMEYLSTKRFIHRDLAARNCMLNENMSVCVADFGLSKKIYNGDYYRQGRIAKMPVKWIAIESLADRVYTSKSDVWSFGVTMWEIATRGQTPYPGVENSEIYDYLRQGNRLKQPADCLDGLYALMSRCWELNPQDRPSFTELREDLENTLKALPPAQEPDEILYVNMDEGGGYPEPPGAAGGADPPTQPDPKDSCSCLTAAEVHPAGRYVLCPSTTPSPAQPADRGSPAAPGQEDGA
In words: TR-FRET kinase activity assay, AXL. The format is biochemical. The conditions noted are these: ATP at Km, 60 minutes. The method in brief: (§1)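 Compounds were tested against each kinase with ATP set at its own Km and a labelled tyrosine peptide substrate. Following one hour at room temperature in buffer containing 10 mM MgCl2 and 1 mM DTT, phosphorylated product was detected by Europium antibody TR-FRET after EDTA quench, and IC50 values were calculated.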
On the technique in general: In TR-FRET formats the signal depends on donor and acceptor labels being close together.

Experiment [2] deals with T2, FLT3 (Homo sapiens, UniProt P36888).
T2 sequence (P36888 27-993): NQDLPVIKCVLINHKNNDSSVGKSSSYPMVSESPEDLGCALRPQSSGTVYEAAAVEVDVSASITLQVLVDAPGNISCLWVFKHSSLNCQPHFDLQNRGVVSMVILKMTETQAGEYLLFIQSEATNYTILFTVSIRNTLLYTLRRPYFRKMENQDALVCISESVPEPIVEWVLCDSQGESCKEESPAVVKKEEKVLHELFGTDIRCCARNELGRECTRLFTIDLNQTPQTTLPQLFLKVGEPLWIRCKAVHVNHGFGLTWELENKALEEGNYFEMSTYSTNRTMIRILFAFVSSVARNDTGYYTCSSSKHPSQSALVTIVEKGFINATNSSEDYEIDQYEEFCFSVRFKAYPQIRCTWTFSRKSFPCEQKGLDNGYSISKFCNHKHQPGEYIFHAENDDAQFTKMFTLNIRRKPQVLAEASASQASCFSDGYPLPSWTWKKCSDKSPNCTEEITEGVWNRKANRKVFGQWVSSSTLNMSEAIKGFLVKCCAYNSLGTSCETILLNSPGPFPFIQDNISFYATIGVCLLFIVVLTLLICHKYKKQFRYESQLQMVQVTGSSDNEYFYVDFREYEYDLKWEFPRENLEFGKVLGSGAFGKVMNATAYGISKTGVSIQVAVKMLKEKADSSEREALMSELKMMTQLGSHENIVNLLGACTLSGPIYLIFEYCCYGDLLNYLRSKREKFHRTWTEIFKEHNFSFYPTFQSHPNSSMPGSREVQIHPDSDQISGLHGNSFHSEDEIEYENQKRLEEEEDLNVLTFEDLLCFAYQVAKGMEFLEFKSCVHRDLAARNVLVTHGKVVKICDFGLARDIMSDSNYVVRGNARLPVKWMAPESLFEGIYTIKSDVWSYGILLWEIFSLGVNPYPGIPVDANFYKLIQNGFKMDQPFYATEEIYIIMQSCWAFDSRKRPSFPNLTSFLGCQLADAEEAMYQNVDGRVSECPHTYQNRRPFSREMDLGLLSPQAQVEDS
In words: TR-FRET kinase activity assay, FLT3. The format is biochemical. The conditions noted are these: ATP at Km, 60 minutes. The method in brief:
as §1

Turning to `COC[C@H](C)Nc1ncc2c(C3=C[C@@H]4CC[C@H](C3)N4)cc([C@H]3CC[C@H](O)CC3)n2n1` [Compound 461], the results for the pIC50 in experiment [1] and in experiment [2] were no less than 7.00 and 5.00 to 6.00, respectively.
In the same order, the values of `COC[C@H](C)Nc1ncc2c(-c3cnn([C@@H]4CCN(C)C4=O)c3)cc([C@H]3CC[C@H](O)CC3)n2n1` [Compound 471] are no less than 7.00 and 5.00 to 6.00.
On to `COC[C@H](C)Nc1ncc2c(-c3ccnc(NC4CCOCC4)c3)cc([C@H]3CC[C@H](O)CC3)n2n1` [Compound 431], for which the pIC50 in experiment [1] was no less than 7.00; in experiment [2] it was 6.00 to 7.00.
In the same order, the values of `COC[C@H](C)Nc1ncc2c(-c3ccnc(N4CCOC4=O)c3)cc([C@H]3CC[C@H](O)CC3)n2n1` [Compound 438] are no less than 7.00 and 5.00 to 6.00.
The matching figures for `COC[C@H](C)Nc1ncc2c(C3=C[C@H]4CC[C@@H](C3)N4C)cc([C@H]3CC[C@H](O)CC3)n2n1` [Compound 494]: no less than 7.00 and 5.00 to 6.00.
The matching figures for `C[C@H](CC(F)(F)F)Nc1ncc2c(C3=C[C@H]4CC[C@@H](C3)N4C(=O)OC(C)(C)C)cc([C@H]3CC[C@H](O)CC3)n2n1` [Compound 456]: no less than 7.00 and no less than 7.00.
In the case of `CC[C@H](C)Nc1ncc2c(C3=CCOCC3)cc([C@H]3CC[C@H](O)CC3)n2n1` [Compound 128], the negative logarithm of the IC50 (pIC50) in experiment [1] and in experiment [2] was no less than 7.00 each time.
As for `COC[C@H](C)Nc1ncc2c(C3=C[C@H]4CCC(C3)N4C(C)=O)cc([C@H]3CC[C@H](O)CC3)n2n1` [Compound 468], the pIC50 in experiment [1] is no less than 7.00; in experiment [2] it was 6.00 to 7.00.
`COC[C@H](C)Nc1ncc2c(-c3ccc(C(C)(C)C(=O)N4CCOCC4)s3)cc([C@H]3CC[C@H](O)CC3)n2n1` [Compound 460]: the pIC50 in experiment [1] and in experiment [2] was no less than 7.00 in each case.
Take `CCCCC[C@H](C)Nc1ncc2c([C@H]3CC[C@@H](C(=O)N4CCN(C)CC4)CC3)cc([C@H]3CC[C@H](O)CC3)n2n1` [Compound 127]: the pIC50 is no less than 7.00 in experiment [1] and 6.00 to 7.00 in experiment [2].
With `COC[C@H](C)Nc1ncc2c(-c3cnn([C@H]4CCN(C)C4=O)c3)cc([C@H]3CC[C@H](O)CC3)n2n1` [Compound 470], the negative-log IC50 (pIC50) in experiment [1] was no less than 7.00; in experiment [2], 6.00 to 7.00.
As to `COC[C@H](C)Nc1ncc2c(-c3cccc(N4C[C@H]5COC[C@H]5C4)c3)cc([C@H]3CC[C@H](O)CC3)n2n1` [Compound 464], the pIC50 in experiment [1] is no less than 7.00; in experiment [2] it was 6.00 to 7.00.
Regarding `COC[C@H](C)Nc1ncc2c(-c3cnn(C(C)(C)C(=O)N4CCC(C)(C#N)CC4)c3)cc([C@H]3CC[C@H](O)CC3)n2n1` [Compound 451], the negative logarithm of the IC50 (pIC50) in experiment [1] is no less than 7.00; in experiment [2] it was 6.00 to 7.00.
The matching figures for `COC[C@H](C)Nc1ncc2c(C#CC(C)(C)C(=O)N3CCOCC3)cc([C@H]3CC[C@H](O)CC3)n2n1` [Compound 449]: 6.00 to 7.00 and 5.00 to 6.00.
The matching figures for `COC[C@H](C)Nc1ncc2c(C3=C[C@@H]4CC[C@H](C3)N4C(=O)N3CCOCC3)cc([C@H]3CC[C@H](O)CC3)n2n1` [Compound 463]: no less than 7.00 and 6.00 to 7.00.
In the same order, the values of `COC[C@H](C)Nc1ncc2c(-c3ccnc(N4C[C@H]5CC[C@@H](C4)O5)c3)cc([C@H]3CC[C@H](O)CC3)n2n1` [Compound 445] are no less than 7.00 and 6.00 to 7.00.
On to `COC[C@H](C)Nc1ncc2c(C3=C[C@@H]4CC[C@H](C3)N4CC(F)(F)F)cc([C@H]3CC[C@H](O)CC3)n2n1` [Compound 485], for which the negative-log IC50 (pIC50) was no less than 7.00 in experiment [1] and 6.00 to 7.00 in experiment [2].
The matching figures for `COC[C@H](C)Nc1ncc2c(-c3cnn(C(C)(C)C(=O)C4CCc5sc(C)nc5C4)c3)cc([C@H]3CC[C@H](O)CC3)n2n1` (stereo partly shown) [Compound 496]: no less than 7.00 and 5.00 to 6.00.
With `COC[C@H](C)Nc1ncc2c(-c3cnn(C4COC4)c3)cc([C@H]3CC[C@@](C)(O)CC3)n2n1` (single isomer, unassigned) [Compound 453], the values for the pIC50 in experiment [1] and in experiment [2] were no less than 7.00 and 6.00 to 7.00, respectively.
`COC[C@H](C)Nc1ncc2c(-c3ccnc(N4CCN(C5COC5)CC4)c3)cc([C@H]3CC[C@H](O)CC3)n2n1` [Compound 486]: the pIC50 in experiment [1] is no less than 7.00; in experiment [2], 5.00 to 6.00.
In the same order, the values of `CCC1(Nc2ncc3c(-c4ccc(CN5CCN(C)CC5)cc4)cc([C@H]4CC[C@H](O)CC4)n3n2)CCC1` [Compound 126] are 6.00 to 7.00 and 5.00 to 6.00.
The matching figures for `COC[C@H](C)Nc1ncc2c(-c3ccnc(N4CCC5(COC5)C4)c3)cc([C@H]3CC[C@H](O)CC3)n2n1` [Compound 493]: no less than 7.00 and 6.00 to 7.00.
On to `COC[C@H](C)Nc1ncc2c(-c3cnn(CC(C)(C)N4CCOCC4)c3)cc([C@H]3CC[C@H](O)CC3)n2n1` [Compound 507], for which the negative-log IC50 (pIC50) in experiment [1] is no less than 7.00; in experiment [2], 6.00 to 7.00.
In the same order, the values of `COC[C@H](C)Nc1ncc2c(-c3ccnc(N4CCN(C(=O)OC5COC5)CC4)c3)cc([C@H]3CC[C@H](O)CC3)n2n1` [Compound 504] are no less than 7.00 and 6.00 to 7.00.
`COC[C@H](C)Nc1ncc2c(-c3cnn(C[C@@H]4CCO4)c3)cc([C@H]3CC[C@H](O)CC3)n2n1` [Compound 474]: the pIC50 in experiment [1] is no less than 7.00; in experiment [2], 6.00 to 7.00.
As to `COC[C@H](C)Nc1ncc2c(-c3ccnc(N4CCC5(CCO5)CC4)c3)cc([C@H]3CC[C@H](O)CC3)n2n1` [Compound 430], the pIC50 in experiment [1] was no less than 7.00; in experiment [2], 6.00 to 7.00.
The matching figures for `COC[C@H](C)Nc1ncc2c(-c3ccnc(N4Cc5nc(C)sc5C4)c3)cc([C@H]3CC[C@H](O)CC3)n2n1` [Compound 479, (trans)-4-(2-(((S)-1-methoxypropan-2-yl)amino)-5-(2-(2-methyl-4H-pyrrolo[3,4-d]thiazol-5(6H)-yl)pyridin-4-yl)pyrrolo[2,1-f][1,2,4]triazin-7-yl)cyclohexanol]: no less than 7.00 and 5.00 to 6.00.
On to `COC[C@H](C)Nc1ncc2c(-c3csc(C(=O)N4CCOCC4)c3)cc([C@H]3CC[C@H](O)CC3)n2n1` [Compound 444], for which the negative logarithm of the IC50 (pIC50) in experiment [1] is no less than 7.00; in experiment [2] it was 6.00 to 7.00.
As to `COC[C@H](C)Nc1ncc2c(-c3ccnc(N4CCN(C(=O)C5COC5)CC4)c3)cc([C@H]3CC[C@H](O)CC3)n2n1` [Compound 500], the negative-log IC50 (pIC50) in experiment [1] was no less than 7.00; in experiment [2] it was 6.00 to 7.00.
The matching figures for `COC[C@H](C)Nc1ncc2c(-c3cnn(C(C)(C)C(=O)N4CCN(C)CC4)c3)cc([C@H]3CC[C@H](O)CC3)n2n1` [Compound 466]: no less than 7.00 and 5.00 to 6.00.
The matching figures for `COC[C@H](C)Nc1ncc2c(-c3ccc(-c4nn[nH]n4)cc3)cc([C@H]3CC[C@H](O)CC3)n2n1` [Compound 134]: no less than 7.00 and 5.00 to 6.00.
In the same order, the values of `C[C@@H](CC(F)(F)F)Nc1ncc2c(C3=CCNCC3)cc([C@H]3CC[C@H](O)CC3)n2n1` [Compound 442] are no less than 7.00 and no less than 7.00.
